Marks after values point to notes of the source that are not given here.
Legend:
[1] = system: purified enzyme protein (transaminase); assay: Reactivity of purified transaminase to carbonyl compounds with (R)-1-phenylethylamine as amino group donor; type: biochemical, Arthrobacter species KNK168; conditions: for Relative Activity: 25 mM carbonyl compound, 25 mM (R)-1-phenylethylamine, pH 8.5, 30° C., pyruvic acid = 100; for Reactivity as carbonyl compound (in words): (R)-1-phenylethylamine as amino group donor
Method: Using the purified enzyme protein obtained in Example 9, reactivities to various carbonyl compounds using (R)-1-phenylethylamine as an amino group donor were evaluated. A 50 μl solution of the purified enzyme protein was added to 200 μl substrate solution [0.1 M Tris-HCl buffer (pH 8.5), 25 mM (R)-1-phenylethylamine, 0.1 mM pyridoxal phosphate, and 25 mM various carbonyl compounds], and the mixture was reacted at 30° C. for 1 to 3 hours in tube. The reaction tube was transferred into boiling water to stop the reaction, and thereafter, the reaction mixture was diluted five-folds with methanol. This diluted solution was analyzed by high-performance liquid chromatography using a fine pack C18-5 column and using methanol-water (20:80) as an eluent to quantitate acetophenone formed by the reaction.

[2] = system: Arthrobacter species KNK168 strain; assay: Amino group donors in whole-cell transamination of 1-(3,4-dimethoxyphenyl)-2-propanone; type: cell-based
Method: The cultured cells were harvested by centrifugation, and the harvested cells were suspended in a reaction mixture (pH 8.5) containing 1% 1-(3,4-dimethoxyphenyl)-2-propanone, 0.1% Triton X-100, and 1% an amino group donor shown in Table 5. The mixture was reacted at 35° C. for 20 hours.

[3] = system: transaminase (intracellular enzyme); assay: Activity of the transaminase (intracellular enzyme) on typical substrates of ω-aminotransferases; type: biochemical, Arthrobacter sp. KNK168
[4] = system: Transaminase of Present Invention (purified enzyme); assay: Influence of reaction inhibitors on purified transaminase; type: biochemical, Arthrobacter sp. KNK168; conditions: inhibitor 1 mM; without addition = 100
Text: (§1) The differences with the ω-amino acid transaminase derived from Pseudomonas sp. F-1 (Agric. Biol. Chem., 42, 2363–2367 (1978), Agric. Biol. Chem., 43, 1043–1048 (1979), J. Biol. Chem., 258, 2260–2265 (1983)) which have been well studied among the ω-amino acid transaminases, and with the benzylamine transaminase of Okada et al. (Japanese Patent Laid-Open No. Hei 6-178685) are summarized and shown in Table 2. In a case of the transaminase reaction in the present invention, the data of the purified enzyme are used, and in cases of those by other two enzymes, the data of the purified enzymes which are disclosed in each of the literature publication and laid-open patent publication are used. Pyruvic acid is used as an amino group acceptor in all cases.

[5] = system: Transaminase of Present Invention (purified enzyme); assay: Reactivity of purified transaminase to amino compounds (amino group donors) with pyruvic acid as acceptor; type: biochemical, Arthrobacter sp. KNK168; conditions: for Relative Activity: amino compound 40 mM in substrate solution, pyruvic acid acceptor, pH 8.3, 30° C., 1 hour, (R)-1-phenylethylamine = 100; for Reactivity as amino compound (in words): pyruvic acid as amino acceptor
Text: as §1
Using the purified enzyme protein obtained in Example 9, reactivities to various amino compounds when using pyruvic acid as an amino acceptor were evaluated. A 150 μl solution of the purified enzyme protein solution diluted ten-folds was added to a 150 μl substrate solution [0.1 M potassium phosphate buffer (pH 8.3), 40 mM pyruvic acid, 0.1 mM pyridoxal phosphate, and 40 mM various amino compounds]. The components were reacted at 30° C. for 1 hour. The reaction tube was transferred into boiling water to stop the reaction, and thereafter, a part of the reaction mixture was diluted five-folds. Ten μl 0.1 M boric acid buffer (pH 8.0) and a 20 μl ethanol solution of 80 mM 4-fluoro-7-nitro-2,1,3-benzoxadiazole (NBD-F) were added to the 10 μl above-mentioned diluted reaction mixture. The resulting mixture was reacted at 60° C. for 1 minute, and thereafter, the resulting mixture was ice-cooled, and 460 μl 5 mM HCl was added thereto. This reaction mixture was analyzed by high-performance liquid chromatography using a fine pack C18-5 column (manufactured by Nippon Bunko) I and using 0.1 M potassium phosphate buffer (pH 6.5) and CH3CN (90:10) as an eluent to detect formation of NBD-Alanine with an excitation wavelength of 470 nm and a detection wave of […]. The results thereof are shown in Table 8 in terms of relative activity in the case of using […] as a substrate.

[6] = system: Arthrobacter species KNK168 strain; assay: Surfactant and fatty acid additives in whole-cell transamination; type: cell-based; conditions: for (R)-DMA Formed: 30° C., pH 8.5, 20 hours; for Effect of additive on yield of reaction product (in words): whole cells
Method: The cells obtained by culturing the Arthrobacter species KNK168 strain in the R medium were suspended in a reaction mixture containing 2% 1-(3,4-dimethoxyphenyl)-2-propanone and 4% (RS)-1-phenylethylamine. The surfactants and fatty acids shown in Table 6 were added thereto, and the mixture was reacted at 30° C. at a pH of 8.5 for 20 hours.

[7] = 1% amino group donor, 1% 1-(3,4-dimethoxyphenyl)-2-propanone, 0.1% Triton X-100, pH 8.5, 35° C., 20 hours
[8] = amino group acceptor 2-ketoglutaric acid, (R)-1-phenylethylamine/pyruvic acid = 100 (control)
[9] = amino group acceptor pyruvic acid, (R)-1-phenylethylamine = 100 (control)
[10] = additive 0.1%, no addition 28.1

Q: How did the “Relative Activity” value [1] turn out when 2-Decane was run?
A: 3%

Q: CC(CN)c1ccccc1 (racemic) [(RS)-1-Amino-2-phenylpropane] was tested. Which “(R)-DMA Formed” value ([2]; pH 8.5) did it give?
A: 1.8%

Q: Which “(R)-DMA Formed” value [2, 7] does the source give for CC(N)c1ccccc1 (racemic) [(RS)-1-Phenylmethylamine] here?
A: 3.1%

Q: How did the “(R)-DMA Formed” value [2, 7] turn out when CC(N)CO (racemic) [(RS)-2-Amino-1-propanol] was run?
A: 9.6%

Q: NC(CO)c1ccccc1 (racemic) [(RS)-2-Amino-2-phenylethanol] was tested. Which “(R)-DMA Formed” value [2, 7] did it give?
A: 48.4%

Q: How did the “(R)-DMA Formed” value [2, 7] turn out when NC(CO)Cc1ccccc1 (racemic) [(RS)-2-Amino-3-phenylpropanol] was run?
A: 22.7%

Q: With CC(N)CCc1ccccc1 (racemic) [(RS)-2-Amino-4-phenylbutane] as the compound, how does the “(R)-DMA Formed” value [2, 7] read?
A: 27.6%

Q: Which “Relative Activity” value [3, 8] does the source give for NC(=O)CC(N)C(=O)O (racemic) [DL-Asparagine] here?
A: 0%

Q: Which “Relative Activity” value [3, 8] does the source give for NC(=O)CCC(N)C(=O)O (racemic) [DL-Glutamine] here?
A: 0%

Q: Which “Relative Activity” value [3, 8] does the source give for NCCCCC(N)C(=O)O (racemic) [DL-Lysine] here?
A: 0%

Q: With NCCCC(N)C(=O)O (racemic) [DL-Ornithine] as the compound, how does the “Relative Activity” value [3, 8] read?
A: 0%

Q: Which “Relative activity with inhibitor” value [4] does the source give for NC1C=CC=C(C(=O)O)C1 (racemic) [Gabaculine] here?
A: 24%

Q: For COc1ccc(CC(C)=O)cc1OC [1-(3,4-Dimethoxyphenyl)-2-propanone], which “Relative Activity” value [1] is on record?
A: 7%

Q: How did the “Relative Activity” value [1] turn out when COCC(C)=O [1-Methoxy-2-propanone] was run?
A: 16%

Q: How did the “Relative Activity” value [5] turn out when CCCCCCC(C)N (stereo not drawn) [1-Methylheptylamine] was run?
A: 47%

Q: With CCC(C)N (stereo not drawn) [1-Methylpropylamine] as the compound, how does the “Relative Activity” value [5] read?
A: 1.2%

Q: Which “Relative Activity” value [1] does the source give for CCC(=O)Cc1ccccc1 [1-Phenyl-2-butanone] here?
A: 1%

Q: Which “Relative Activity” value [1] does the source give for O=C1CCCc2ccccc21 [1-Tetralone] here?
A: 1%

Q: NCCCC(N)C(=O)O (stereo not drawn) [2,5-Diaminovalerate] was tested. Which “Relative Activity” value [3, 8] did it give?
A: 2%

Q: With CC(=O)c1ccco1 [2-Acetylfuran] as the compound, how does the “Relative Activity” value [1] read?
A: 2%

Q: For CC(=O)c1cnccn1 [2-Acetylpyrazine], which “Relative Activity” value [1] is on record?
A: 17%

Q: CC(=O)c1ccccn1 [2-Acetylpyridine] was tested. Which “Relative Activity” value [1] did it give?
A: 19%

Q: Which “Relative Activity” value [1] does the source give for CC(=O)c1nccs1 [2-Acetylthiazole] here?
A: 10%

Q: CC(=O)c1cccs1 [2-Acetylthiophene] was tested. Which “Relative Activity” value [1] did it give?
A: 1%

Q: CCC(=O)C(=O)O [2-Ketobutyric acid] was tested. Which “Relative Activity” value [1] did it give?
A: 7%

Q: With CCCCC(C)CN (stereo not drawn) [2-Methylhexylamine] as the compound, how does the “Relative Activity” value [5] read?
A: 37%

Q: CC(=O)Oc1cccnc1 [3-Acetoxypyridine] was tested. Which “Relative Activity” value [1] did it give?
A: 1%

Q: With CC(=O)c1cccnc1 [3-Acetylpyridine] as the compound, how does the “Relative Activity” value [1] read?
A: 8%

Q: With CC(N)CCc1ccccc1 (stereo not drawn) [3-Aminophenylbutane] as the compound, how does the “Relative Activity” value [5] read?
A: 84%

Q: And the “Reactivity as amino compound (in words)” value [5]?
A: favorable reactivities

Q: For COc1ccc(CCC(C)=O)cc1 [4-(4-Methoxyphenyl)-2-butanone], which “Relative Activity” value [1] is on record?
A: 7%

Q: For CC(=O)c1ccncc1 [4-Acetylpyridine], which “Relative Activity” value [1] is on record?
A: 27%

Q: Which “(R)-DMA Formed” value [2, 7] does the source give for C[C@@H](N)c1cccc2ccccc12 [(R)-1-Naphthylethylamine] here?
A: 34.2%

Q: With C[C@@H](N)c1ccccc1 [(R)-1-Phenylethylamine] as the compound, how does the “Relative Activity” value [5] read?
A: 100%

Q: What about the “Activity on the substance as amino group donor (in words)” value [3] of the same compound?
A: especially high activity

Q: What about the “Relative Activity” value [3, 9] of the same compound?
A: 100* %

Q: With N[C@@H](CO)c1ccccc1 [(R)-2-Phenylglycinol] as the compound, how does the “Relative Activity” value [5] read?
A: 0%

Q: For C[C@H](N)c1ccccc1 [(S)-1-Phenylethylamine], which “Relative Activity” value [5] is on record?
A: 0%

Q: How did the “Relative Activity” value [5] turn out when N[C@H](CO)c1ccccc1 [(S)-2-Phenylglycinol] was run?
A: 180%

Q: What about the “Reactivity as amino compound (in words)” value [5] of the same compound?
A: favorable reactivities

Q: Which “Relative Activity” value [1] does the source give for CC(=O)CCc1ccccc1 [Benzyl acetone] here?
A: 3%

Q: For CCCCCCCCCCCCCCCC[N+](C)(C)C.[Br-] [Cetyl trimethyl ammonium bromide], which “(R)-DMA Formed” value [6, 10] is on record?
A: 29.1%

Q: For CC(=O)C(C)=O [Diacetyl], which “Relative Activity” value [1] is on record?
A: 10%

Q: With CCOC(=O)CC(C)=O [Ethyl acetoacetate] as the compound, how does the “Relative Activity” value [1] read?
A: 4%

Q: With CCOC(=O)CC(=O)c1ccccc1 [Ethyl benzoyl acetate] as the compound, how does the “Relative Activity” value [1] read?
A: 2%

Q: With CCOC(=O)C(C)=O [Ethyl pyruvate] as the compound, how does the “Relative Activity” value [1] read?
A: 27%

Q: With O=CC(=O)O [Glyoxylic acid] as the compound, how does the “Relative Activity” value [1] read?
A: 4%

Q: Which “Relative Activity” value [5] does the source give for N[C@H](CO)Cc1ccccc1 [L-Phenylalaninol] here?
A: 0.8%

Q: Which “(R)-DMA Formed” value ([6]; additive 2.9%) does the source give for CCCCC/C=C\C/C=C\CCCCCCCC(=O)O [Linoleic Acid] here?
A: 45.1%

Q: And the “Effect of additive on yield of reaction product (in words)” value (“Effect of additive” below) [6]?
A: yield of the reaction product was increased

Q: With CCCCCCCC/C=C\CCCCCCCC(=O)O [Oleic Acid] as the compound, how does the “(R)-DMA Formed” value ([6]; additive 2.9%) read?
A: 44.9%

Q: And the “Effect of additive” value [6]?
A: yield of the reaction product was increased

Q: With O=C(O)CC(=O)C(=O)O [Oxalacetic acid] as the compound, how does the “Relative Activity” value [1] read?
A: 87%

Q: What about the “Reactivity as carbonyl compound (in words)” value [1] of the same compound?
A: favorable reactivities

Q: CC(=O)COc1ccccc1 [Phenoxy-2-propanone] was tested. Which “Relative Activity” value [1] did it give?
A: 83%

Q: And the “Reactivity as carbonyl compound (in words)” value [1]?
A: favorable reactivities

Q: Which “Relative Activity” value [1] does the source give for O=CCc1ccccc1 [Phenyl acetaldehyde] here?
A: 13%

Q: CC(=O)C(=O)O [Pyruvic acid] was tested. Which “Relative Activity” value [1] did it give?
A: 100%

Q: How did the “(R)-DMA Formed” value [6, 10] turn out when CCCCCCCCCCCCOS(=O)(=O)[O-].[Na+] [Sodium dodecyl sulfate] was run?
A: 45.3%

Q: What about the “(R)-DMA Formed” value ([6]; additive 0.5%) of the same compound?
A: 42.2%

Q: And the “(R)-DMA Formed” value ([6]; additive 1.0%)?
A: 46.3%

Q: What about the “(R)-DMA Formed” value ([6]; additive 2.0%) of the same compound?
A: 50.1%

Q: What about the “(R)-DMA Formed” value ([6]; additive 3.0%) of the same compound?
A: 51.9%

Q: What about the “(R)-DMA Formed” value ([6]; additive 4.0%) of the same compound?
A: 53.1%

Q: What about the “Effect of additive” value [6] of the same compound?
A: yield of the reaction product was increased

Q: For NCCS(=O)(=O)O [Taurine], which “Relative Activity” value [3, 8] is on record?
A: 0%

Q: Which “Relative Activity” value [3, 9] does the source give for NCCC(N)C(=O)O (stereo not drawn) [α-2,4-Diaminobutyric acid] here?
A: 0%

Q: Triton X-100 was tested. Which “(R)-DMA Formed” value [6, 10] did it give?
A: 31.6%

Q: What about the “(R)-DMA Formed” value ([6]; additive 0.5%) of the same compound?
A: 34.0%

— US7169592B2, “Producing optically active amino compounds” (Kaneka Corporation, priority 1997, dated 2007)
